In ChEMBL document CHEMBL4251553, “Synthesis, anticancer evaluation and pharmacokinetic study of novel 10-O-phenyl ethers of dihydroartemisinin” (Eur J Med Chem, 2017):

Key:
[1] = tested on: MCF7; experiment: Antiproliferative activity against human MCF7 cells after 96 hrs by MTT assay; assay type: functional; details: MCF7, 96 h
[2] = Selectivity ratio of GI50 for human MCF7 cells to GI50 for human MCF7/ADR cells; assay type: functional
[3] = tested on: NCI/ADR-RES; experiment: Antiproliferative activity against human MCF7/ADR cells after 96 hrs by MTT assay; assay type: functional
[4] = tested on: MDA-MB-231; experiment: Antiproliferative activity against human MDA-MB-231 cells after 96 hrs by MTT assay; assay type: functional; details: MDA-MB-231, 96 h
[5] = tested on: U-937; experiment: Antiproliferative activity against human U937 cells after 96 hrs by MTT assay; assay type: functional; details: U-937, 96 h
[6] = tested on: LNCaP; experiment: Antiproliferative activity against human LNCAP cells after 96 hrs by MTT assay; assay type: functional
[7] = tested on: HL-60; experiment: Antiproliferative activity against human HL60 cells after 96 hrs by MTT assay; assay type: functional; details: HL-60, 96 h
[8] = tested on: PC-3; experiment: Antiproliferative activity against human PC3 cells after 96 hrs by MTT assay; assay type: functional; details: PC-3, 96 h
[9] = tested on: NB-4; experiment: Antiproliferative activity against human NB4 cells after 96 hrs by MTT assay; assay type: functional; details: NB-4, 96 h
[10] = tested on: K562; experiment: Antiproliferative activity against human K562 cells after 96 hrs by MTT assay; assay type: functional; details: K562, 96 h
[11] = MRT (0 to infinity) in Sprague-Dawley rat at 10 mg/kg, iv administered as single dose by LC-MS/MS analysis; assay type: ADME, organism-based; details: in vivo
[12] = Plasma concentration in Sprague-Dawley rat at 10 mg/kg, iv administered as single dose measured at 0.5 hrs post dosing by LC-MS/MS analysis; assay type: ADME, organism-based
[13] = AUC (0 to infinity) in Sprague-Dawley rat at 10 mg/kg, iv administered as single dose by LC-MS/MS analysis; assay type: ADME, organism-based; parameters: dose 10 mg/kg, route intravenous, time infinity; details: in vivo
[14] = Plasma concentration in Sprague-Dawley rat at 10 mg/kg, iv administered as single dose measured at 4 hrs post dosing by LC-MS/MS analysis; assay type: ADME, organism-based
[15] = Apparent terminal half life in Sprague-Dawley rat at 10 mg/kg, iv administered as single dose by LC-MS/MS analysis; assay type: ADME, organism-based; details: in vivo, read-out: betat1/2(app) (converted)
[16] = Plasma concentration in Sprague-Dawley rat at 10 mg/kg, iv administered as single dose measured at 24 hrs post dosing by LC-MS/MS analysis; assay type: ADME, organism-based
[17] = Apparent volume of distribution in Sprague-Dawley rat at 10 mg/kg, iv administered as single dose by LC-MS/MS analysis; assay type: ADME, organism-based; details: in vivo, read-out: Vz
[18] = AUC (0 to t) in Sprague-Dawley rat at 10 mg/kg, iv administered as single dose by LC-MS/MS analysis; assay type: ADME, organism-based; details: in vivo
[19] = Plasma concentration in Sprague-Dawley rat at 10 mg/kg, iv administered as single dose measured at 2 hrs post dosing by LC-MS/MS analysis; assay type: ADME, organism-based
[20] = Plasma concentration in Sprague-Dawley rat at 10 mg/kg, iv administered as single dose measured at 0.25 hrs post dosing by LC-MS/MS analysis; assay type: ADME, organism-based
[21] = Cmax in Sprague-Dawley rat at 10 mg/kg, iv administered as single dose by LC-MS/MS analysis; assay type: ADME, organism-based; parameters: dose 10 mg/kg, route intravenous; details: in vivo
[22] = Plasma concentration in Sprague-Dawley rat at 10 mg/kg, iv administered as single dose measured at 1 hr post dosing by LC-MS/MS analysis; assay type: ADME, organism-based
[23] = Apparent clearance in Sprague-Dawley rat at 10 mg/kg, iv administered as single dose by LC-MS/MS analysis; assay type: ADME, organism-based; details: in vivo, read-out: CL(app) (converted)
[24] = Plasma concentration in Sprague-Dawley rat at 10 mg/kg, iv administered as single dose measured at 8 hrs post dosing by LC-MS/MS analysis; assay type: ADME, organism-based
[25] = Plasma concentration in Sprague-Dawley rat at 10 mg/kg, iv administered as single dose measured at 0.083 hrs post dosing by LC-MS/MS analysis; assay type: ADME, organism-based

CC(=O)N1N=C(c2ccc(O[C@H]3O[C@@H]4O[C@@]5(C)CC[C@H]6[C@H](C)CC[C@@H]([C@H]3C)[C@@]46O5)cc2)CC1c1ccccc1 (some centres not stated)
GI50 [1]: 11000 nM

C[C@H]1[C@@H](Oc2ccc(-c3cc(-c4ccc(Br)cc4)[nH]n3)cc2)O[C@@H]2O[C@@]3(C)CC[C@H]4[C@H](C)CC[C@@H]1[C@@]24OO3
GI50 [1]: 340 nM | RatioGI50 [2]: 10.3 | GI50 [3]: 33 nM | GI50 [4]: 410 nM

CC(=O)N1N=C(c2ccc(O)cc2)CC1c1ccccc1 (configuration not stated)
GI50 [1]: 29100 nM | RatioGI50 [2]: 0.77 | GI50 [3]: 38000 nM

C[C@H]1[C@@H](O)O[C@@H]2O[C@@]3(C)CC[C@H]4[C@H](C)CC[C@@H]1[C@@]24OO3 [ARTENIMOL]
RatioGI50 [2]: 10 | GI50 [5]: 910 nM | GI50 [6]: > 10000 nM | GI50 [4]: 12600 nM | GI50 [7]: 191 nM | GI50 [8]: > 10000 nM | GI50 [9]: 151 nM | GI50 [10]: > 10000 nM

COc1ccc(C2CC(c3ccc(O[C@H]4O[C@@H]5O[C@@]6(C)CC[C@H]7[C@H](C)CC[C@@H]([C@H]4C)[C@@]57OO6)cc3)=NN2C(C)=O)cc1 (some centres not stated)
GI50 [1]: 320 nM | RatioGI50 [2]: 11.4 | GI50 [3]: 28 nM | GI50 [4]: 500 nM

COc1ccc(C2CC(c3ccc(O[C@@H]4O[C@@H]5O[C@@]6(C)CC[C@H]7[C@H](C)CC[C@@H]([C@H]4C)[C@@]57OO6)cc3)=NN2C(C)=O)cc1 (some centres not stated)
GI50 [1]: 300 nM | RatioGI50 [2]: 5.9 | GI50 [3]: 51 nM | GI50 [4]: 990 nM

COc1ccc(-c2cc(-c3ccc(O[C@@H]4O[C@@H]5O[C@@]6(C)CC[C@H]7[C@H](C)CC[C@@H]([C@H]4C)[C@@]57OO6)cc3)n[nH]2)c(OC)c1
GI50 [1]: 500 nM | RatioGI50 [2]: 12.2 | GI50 [3]: 41 nM | GI50 [4]: 760 nM

COc1ccc(C2CC(c3ccc(O[C@H]4O[C@@H]5O[C@@]6(C)CC[C@H]7[C@H](C)CC[C@@H]([C@H]4C)[C@@]57OO6)cc3)=NN2C(C)=O)c(OC)c1 (some centres not stated)
GI50 [1]: 500 nM | RatioGI50 [2]: 20 | GI50 [3]: 25 nM | GI50 [4]: 240 nM

C[C@H]1[C@H](Oc2ccc(-c3cc(-c4ccccc4)[nH]n3)cc2)O[C@@H]2O[C@@]3(C)CC[C@H]4[C@H](C)CC[C@@H]1[C@@]24OO3
GI50 [1]: 260 nM | RatioGI50 [2]: 13.7 | GI50 [3]: 19 nM | GI50 [4]: 960 nM

CC(=O)N1N=C(c2ccc(O[C@H]3O[C@@H]4O[C@@]5(C)CC[C@H]6[C@H](C)CC[C@@H]([C@H]3C)[C@@]46OO5)cc2)CC1c1ccccc1 (some centres not stated)
MRT inf [11]: 3.07 h | concentration at 0.5 h [12]: 1260 ng/mL | AUC(0-inf) [13]: 4170 ng·h/mL | GI50 [1]: 130 nM | concentration at 4 h [14]: 224 ng/mL | half-life [15]: 3.87 h | RatioGI50 [2]: 2.1 | concentration at 24 h [16]: 6.73 ng/mL | GI50 [3]: 61 nM | GI50 [5]: 40 nM | Vd [17]: 13.7 L/kg | AUC(0-t) [18]: 4140 ng·h/mL | concentration at 2 h [19]: 523 ng/mL | concentration at 0.25 h [20]: 1900 ng/mL | GI50 [6]: 93 nM | GI50 [4]: 420 nM | Cmax [21]: 2430 ng/mL | GI50 [7]: 25 nM | concentration at 1 h [22]: 935 ng/mL | GI50 [8]: 110 nM | GI50 [9]: 29 nM | clearance [23]: 41.3 mL/min/kg | concentration at 8 h [24]: 63.9 ng/mL | concentration at 0.083 h [25]: 2430 ng/mL | GI50 [10]: 73 nM

CC(=O)N1N=C(c2ccc(O[C@H]3O[C@@H]4O[C@@]5(C)CC[C@H]6[C@H](C)CC[C@@H]([C@H]3C)[C@@]46OO5)cc2)CC1c1ccc(Cl)cc1 (some centres not stated)
GI50 [1]: 220 nM | RatioGI50 [2]: 7.3 | GI50 [3]: 30 nM | GI50 [4]: 160 nM

COc1cccc2c1C(=O)c1c(O)c3c(c(O)c1C2=O)C[C@@](O)(C(=O)CO)C[C@@H]3O[C@H]1C[C@H](N)[C@H](O)[C@H](C)O1.Cl [DOXORUBICIN HYDROCHLORIDE]
GI50 [1]: 54 nM | RatioGI50 [2]: 0.1 | GI50 [3]: 540 nM | GI50 [4]: 120 nM

CC(=O)N1N=C(c2ccc(O[C@@H]3O[C@@H]4O[C@@]5(C)CC[C@H]6[C@H](C)CC[C@@H]([C@H]3C)[C@@]46OO5)cc2)CC1c1ccccc1 (some centres not stated)
GI50 [1]: 570 nM | RatioGI50 [2]: 14.2 | GI50 [3]: 50 nM | GI50 [4]: 1230 nM

CC(=O)N1N=C(c2ccc(O[C@H]3O[C@@H]4O[C@@]5(C)CC[C@H]6[C@H](C)CC[C@@H]([C@H]3C)[C@@]46OO5)cc2)CC1c1ccc(Br)cc1 (some centres not stated)
GI50 [1]: 300 nM | RatioGI50 [2]: 11.5 | GI50 [3]: 26 nM | GI50 [4]: 370 nM

CC(=O)N1N=C(c2ccc(O[C@@H]3O[C@@H]4O[C@@]5(C)CC[C@H]6[C@H](C)CC[C@@H]([C@H]3C)[C@@]46OO5)cc2)CC1c1ccc(Br)cc1 (some centres not stated)
GI50 [1]: 980 nM | RatioGI50 [2]: 6.5 | GI50 [3]: 150 nM | GI50 [4]: 580 nM

C[C@H]1[C@H](Oc2ccc(-c3cc(-c4ccc(Br)cc4)[nH]n3)cc2)O[C@@H]2O[C@@]3(C)CC[C@H]4[C@H](C)CC[C@@H]1[C@@]24OO3
GI50 [1]: 440 nM | RatioGI50 [2]: 14.7 | GI50 [3]: 30 nM | GI50 [4]: 550 nM

C[C@H]1[C@H](Oc2ccc(-c3cc(-c4ccc(Cl)cc4)[nH]n3)cc2)O[C@@H]2O[C@@]3(C)CC[C@H]4[C@H](C)CC[C@@H]1[C@@]24OO3
GI50 [1]: 440 nM | RatioGI50 [2]: 14.2 | GI50 [3]: 31 nM | GI50 [4]: 630 nM

C[C@@H]1CC[C@H]2[C@@H](C)C(O)O[C@@H]3O[C@@]4(C)CC[C@@H]1[C@]32O4 (some centres not stated)
GI50 [1]: > 400000 nM

COc1ccc(C2CC(c3ccc(O[C@@H]4O[C@@H]5O[C@@]6(C)CC[C@H]7[C@H](C)CC[C@@H]([C@H]4C)[C@@]57OO6)cc3)=NN2C(C)=O)c(OC)c1 (some centres not stated)
GI50 [1]: 380 nM | RatioGI50 [2]: 6.6 | GI50 [3]: 58 nM | GI50 [4]: 580 nM

Oc1ccc(-c2cc(-c3ccccc3)n[nH]2)cc1
GI50 [1]: 21200 nM | RatioGI50 [2]: 1.66 | GI50 [3]: 18200 nM

C[C@H]1[C@@H](Oc2ccc(-c3cc(-c4ccc(Cl)cc4)[nH]n3)cc2)O[C@@H]2O[C@@]3(C)CC[C@H]4[C@H](C)CC[C@@H]1[C@@]24OO3
GI50 [1]: 190 nM | RatioGI50 [2]: 3.6 | GI50 [3]: 55 nM | GI50 [4]: 920 nM

COc1ccc(-c2cc(-c3ccc(O[C@H]4O[C@@H]5O[C@@]6(C)CC[C@H]7[C@H](C)CC[C@@H]([C@H]4C)[C@@]57OO6)cc3)n[nH]2)cc1
GI50 [1]: 560 nM | RatioGI50 [2]: 20 | GI50 [3]: 28 nM | GI50 [4]: 870 nM

COc1ccc(-c2cc(-c3ccc(O[C@@H]4O[C@@H]5O[C@@]6(C)CC[C@H]7[C@H](C)CC[C@@H]([C@H]4C)[C@@]57OO6)cc3)n[nH]2)cc1
GI50 [1]: 440 nM | RatioGI50 [2]: 8.5 | GI50 [3]: 52 nM | GI50 [4]: 1420 nM

COc1ccc(-c2cc(-c3ccc(O[C@H]4O[C@@H]5O[C@@]6(C)CC[C@H]7[C@H](C)CC[C@@H]([C@H]4C)[C@@]57OO6)cc3)n[nH]2)c(OC)c1
GI50 [1]: 330 nM | RatioGI50 [2]: 10 | GI50 [3]: 33 nM | GI50 [4]: 670 nM

CC(=O)N1N=C(c2ccc(O[C@@H]3O[C@@H]4O[C@@]5(C)CC[C@H]6[C@H](C)CC[C@@H]([C@H]3C)[C@@]46OO5)cc2)CC1c1ccc(Cl)cc1 (some centres not stated)
GI50 [1]: 500 nM | RatioGI50 [2]: 14.3 | GI50 [3]: 35 nM | GI50 [4]: 400 nM
